The values below come from ChEMBL document CHEMBL4373702, “Intracellular Trapping of the Selective Phosphoglycerate Dehydrogenase (PHGDH) Inhibitor BI-4924 Disrupts Serine Biosynthesis” (J Med Chem, 2019).

SMILES strings stand for the structures. Converted amounts (≈) assume the structure as drawn. The source made the active and inactive calls.

As a reminder, the IC50 is the concentration needed to halve the response being measured. Usually half-life stands for the time needed for the level to fall by half in the phase considered. A higher half-life goes with slow decline. The term solubility denotes the concentration that dissolves in the medium under given conditions.

Series [1] in a line: Drug uptake in human MDA-MB-468 cells assessed as BI-4924 levels at 3 uM measured up to 72 hrs relative to control. It counts as ADME, cell-based. As to conditions: mda-mb-468, 72 h.
Series [2] addresses T1, D-3-phosphoglycerate dehydrogenase (Homo sapiens, UniProt O43175).
T1 sequence (O43175 whole entry): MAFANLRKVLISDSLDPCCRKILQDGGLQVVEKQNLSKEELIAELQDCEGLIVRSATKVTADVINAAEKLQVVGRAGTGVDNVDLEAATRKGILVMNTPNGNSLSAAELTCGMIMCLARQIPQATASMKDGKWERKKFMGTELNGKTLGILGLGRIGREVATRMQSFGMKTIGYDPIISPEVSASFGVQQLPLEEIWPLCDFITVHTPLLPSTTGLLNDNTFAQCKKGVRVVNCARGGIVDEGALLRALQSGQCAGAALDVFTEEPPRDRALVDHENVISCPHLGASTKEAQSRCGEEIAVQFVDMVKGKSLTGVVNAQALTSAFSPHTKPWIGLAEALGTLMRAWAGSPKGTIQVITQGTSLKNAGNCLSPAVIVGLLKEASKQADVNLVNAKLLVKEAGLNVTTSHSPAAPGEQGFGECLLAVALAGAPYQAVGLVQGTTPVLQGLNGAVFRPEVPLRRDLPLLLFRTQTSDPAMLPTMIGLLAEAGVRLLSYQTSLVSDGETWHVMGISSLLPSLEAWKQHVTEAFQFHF
Put plainly: Inhibition of PHGDH in human MDA-MB-468 cells assessed as reduction in [13C]-serine incubated for 72 hrs using [13C]glucose as substrate by LC-MS/MS analysis. It counts as cell-based.

The target of series [3] is T1, D-3-phosphoglycerate dehydrogenase. The experiment in a line: Inhibition of PHGDH in human MDA-MB-468 cells assessed as reduction in [13C]-serine incubated for 1 hr using [13C]glucose as substrate by LC-MS/MS analysis. It counts as cell-based.
A short description of series [4]: Drug uptake in human MDA-MB-468 cells assessed as BI-4924 levels at 3 uM measured up to 72 hrs. It counts as ADME, cell-based. The settings on record: mda-mb-468, 72 h, TDE = time-dependent effect.
Series [5] can be described thus: Half life in 10% fetal calf serum. It counts as ADME, cell-free, Bos taurus. As to conditions: cattle.
Series [6] in a line: Half life in mouse serum. Format: ADME, cell-free.
Series [7] can be described thus: Stability in human liver microsomes relative to hepatic blood flow. Format: ADME, Microsome. As to conditions: read-out: Stability.
A short description of series [8]: Solubility pH 4.5 buffer. Format: physicochemical.
Series [9] addresses T2, 3-hydroxyisobutyrate dehydrogenase, mitochondrial (Homo sapiens) (UniProt P31937).
T2 sequence (whole entry): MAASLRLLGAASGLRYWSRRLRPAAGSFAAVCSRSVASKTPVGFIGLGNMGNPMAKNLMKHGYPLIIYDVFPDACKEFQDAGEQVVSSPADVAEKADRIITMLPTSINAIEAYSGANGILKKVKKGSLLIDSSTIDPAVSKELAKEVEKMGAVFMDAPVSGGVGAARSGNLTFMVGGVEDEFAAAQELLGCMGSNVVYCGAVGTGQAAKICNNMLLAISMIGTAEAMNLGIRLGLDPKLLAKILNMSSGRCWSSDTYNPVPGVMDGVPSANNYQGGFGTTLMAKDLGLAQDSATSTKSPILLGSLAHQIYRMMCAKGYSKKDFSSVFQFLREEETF
Put plainly: Binding affinity to 3-hydroxyisobutyrate dehydrogenase in human MDA-MB-468 cells at 10 uM incubated for 2 hrs in presence of 2-[4-[(1S)-1-[[6-(10-aminodecyl)-4,5-dichloro-1-methyl-indole-2-carbonyl]amino]-2-hydroxy-ethyl]phenyl]sulfonylacetic acid by quantitative chemical proteomics assay. Format: cell-based.

The nature of series [10]: Permeability from basolateral to apical side in human Caco2 cells. Format: ADME, cell-based. As to conditions: caco-2. Background: Caco-2 cells form a polarised layer with tight junctions and transporters.
The nature of series [11]: Permeability from apical to basolateral side in human Caco2 cells. Format: ADME, cell-based. The settings on record: caco-2.
The nature of series [12]: Stability in mouse hepatocytes relative to hepatic blood flow. It counts as ADME, cell-based, Hepatocyte. As to conditions: read-out: Stability.
The nature of series [13]: Protein binding in mouse plasma. Format: ADME, cell-free. The settings on record: read-out: PPB (converted).
Series [14] deals with Alcohol dehydrogenase class-3 (Homo sapiens) (UniProt P11766). The experiment in a line: Binding affinity to Alcohol dehydrogenase class-3 in human MDA-MB-468 cells at 10 uM incubated for 2 hrs in presence of 12-amino-2-[4-[(1S)-1-[(4,5-dichloro-1,6-dimethyl-indole-2-carbonyl)amino]-2-hydroxy-ethyl]phenyl]sulfonyl-dodecanoic acid by quantitative chemical proteomics assay. Format: cell-based.
Chain of Alcohol dehydrogenase class-3 (Homo sapiens) (P11766 2-374 limits assumed): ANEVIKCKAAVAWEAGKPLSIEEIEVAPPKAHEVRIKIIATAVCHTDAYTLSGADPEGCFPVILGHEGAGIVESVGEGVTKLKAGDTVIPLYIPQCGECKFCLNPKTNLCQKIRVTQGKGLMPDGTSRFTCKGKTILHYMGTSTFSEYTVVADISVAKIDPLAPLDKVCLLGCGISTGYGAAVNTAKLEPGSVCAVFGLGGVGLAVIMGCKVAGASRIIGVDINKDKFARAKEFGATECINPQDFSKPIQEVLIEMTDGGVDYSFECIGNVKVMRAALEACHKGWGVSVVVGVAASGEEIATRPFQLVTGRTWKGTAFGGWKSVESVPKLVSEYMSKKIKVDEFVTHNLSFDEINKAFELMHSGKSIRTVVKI

Series [15] is described as follows: Stability in rat liver microsomes relative to hepatic blood flow. Format: ADME, Microsome. The settings on record: read-out: Stability. (In general: Liver microsomes are a subcellular fraction often used to study metabolism.)
The nature of series [16]: Efflux ratio of permeability from apical to basolateral side over basolateral to apical side in human Caco2 cells. Format: ADME, cell-based. The settings on record: caco-2.
A short description of series [17]: Stability in mouse liver microsomes relative to hepatic blood flow. Format: ADME, Microsome. The settings on record: read-out: Stability.
For series [18], the target named is Alcohol dehydrogenase class-3 (Homo sapiens) (UniProt P11766). Put plainly: Binding affinity to Alcohol dehydrogenase class-3 in human MDA-MB-468 cells at 10 uM incubated for 2 hrs in presence of 2-[4-[(1S)-1-[[6-(10-aminodecyl)-4,5-dichloro-1-methyl-indole-2-carbonyl]amino]-2-hydroxy-ethyl]phenyl]sulfonylacetic acid by quantitative chemical proteomics assay. It counts as cell-based.

The nature of series [19]: Solubility pH 6.8 buffer. Format: physicochemical.
Series [20] can be described thus: Protein binding in 10% fetal calf serum. Format: ADME, cell-free, Bos taurus. As to conditions: cattle, read-out: PB (converted).
Series [21] addresses T2, 3-hydroxyisobutyrate dehydrogenase, mitochondrial (Homo sapiens). The experiment in a line: Binding affinity to 3-hydroxyisobutyrate dehydrogenase in human MDA-MB-468 cells at 10 uM incubated for 2 hrs in presence of 12-amino-2-[4-[(1S)-1-[(4,5-dichloro-1,6-dimethyl-indole-2-carbonyl)amino]-2-hydroxy-ethyl]phenyl]sulfonyl-dodecanoic acid by quantitative chemical proteomics assay. It counts as cell-based.

`CCOC(=O)CS(=O)(=O)c1ccc([C@@H](CO)NC(=O)c2cc3c(Cl)c(Cl)c(C)cc3n2C)cc1`: in series [1], the “fold change (FC)” value is reported as “<= 140”. Also, the IC50 was 2000 nM in series [2] and 29 nM in series [3]. For the same molecule, the Drug uptake entry in [4] was “Tde”. For the same molecule, the half-life was 4.6 h in series [5] and 2.25 h in series [6].

For the molecule `Cc1cc2c(cc(C(=O)N[C@H](CO)c3ccc(S(=O)(=O)CC(=O)O)cc3)n2C)c(Cl)c1Cl`, the hepatic extraction ratio in series [7] was less than 0.24; in series [12] it was 0.38; in [15] it was less than 0.24; in series [17] it was less than 0.23. For the same molecule, the solubility in series [8] came out at 64 mg/mL (≈ 128 mM); in series [19], 59 mg/mL (≈ 118 mM). Also, the outcome in series [9], in series [14], in series [18] and in series [21] was Active. The permeability in [10] and in series [11] was 0.2 ×10⁻⁶ cm/s each time. Also, in [2], the IC50 came out at 2200 nM. Moreover, the fraction unbound in series [13] was 0.004; in series [20] it was 0.17. In series [16], the Ratio is recorded as 11.
